# Source: US12162867B2, “Inhibitors of RNA helicase DHX9 and uses thereof” (ACCENT THERAPEUTICS, INC., priority 2022, dated 2024)
# System: circBRIP1 in HCT116 cells
# Test: DHX9 circBRIP1 cellular target engagement TaqMan Multiplex assay (qPCR)
# Format: cell-based
# Settings: Homo sapiens, HCT-116, 72 h, circBRIP1, HCT116 cells, 72 hours; Taqman assay (marked *); read-out: DHX9 Cellular Target Engagement EC50
row,EC50 [nM],Structure (SMILES)
1,> 10000,Cc1cccnc1-c1csc(C(=O)Nc2cc(Cl)cc(N(C)S(C)(=O)=O)c2)c1 [Example 374]
2,2120,CCCS(=O)(=O)Nc1cc(Cl)cc(NC(=O)c2cc(-c3ncccc3C)cs2)c1 [Example 372]
3,257,CCS(=O)(=O)Nc1cc(Cl)cc(NC(=O)c2cc(-c3ncc(F)cc3C)c(C)s2)c1 [Example 350]
4,130,Cc1sc(C(=O)Nc2cc(Cl)cc(NS(C)(=O)=O)c2)cc1-c1ncc(F)cc1Cl [Example 359]
5,171,CS(=O)(=O)Nc1cc(Cl)cc(NC(=O)c2cc(-c3ccc(C(F)(F)F)cn3)cs2)c1 [Example 370]
6,119,Cc1sc(C(=O)Nc2cc(Cl)cc(NS(C)(=O)=O)c2)cc1-c1ncc(C(F)(F)F)cn1 [Example 357]
7,680,Cc1sc(C(=O)Nc2cc(Cl)cc(NS(C)(=O)=O)c2)cc1-c1ncc(C#N)cc1F [Example 375]
8,506,Cc1cccnc1-c1csc(C(=O)Nc2cc(Cl)cc(NS(=O)(=O)C(C)C)c2)c1 [Example 373]
9,128,CCS(=O)(=O)Nc1cc(Cl)cc(NC(=O)c2cc(-c3ncc(C(F)(F)F)cn3)c(C)s2)c1 [Example 366]
10,228,Cc1cc(F)cnc1-c1cc(C(=O)Nc2cc(Cl)cc(NS(C)(=O)=O)c2)sc1C [Example 348]
11,310,Cc1sc(C(=O)Nc2cc(Cl)cc(NS(C)(=O)=O)c2)cc1-c1ncc(C(F)(F)F)cc1F [Example 368]
12,311,CS(=O)(=O)Nc1cc(Cl)cc(NC(=O)c2cc(-c3ncc(C(F)(F)F)cc3F)cs2)c1 [Example 371]
13,171,Cn1cc(C(=O)Nc2cc(Cl)cc(NS(C)(=O)=O)c2)cc1-c1ncc(F)cc1OC(F)F [Example 363]

# Same assay, conditions: Homo sapiens, HCT-116, circBRIP1, HCT116 cells; * Taqman assay was used; read-out: DHX9 Cellular Target Engagement EC50
row,Structure (SMILES),EC50 [nM]
1,Cc1sc(C(=O)Nc2cc(Cl)cc(NS(=O)(=O)CCO)c2)cc1-c1ncc(N2CC(C(F)(F)F)C2)cc1F [Example 529],253
2,CC(C)Oc1cnc(-c2csc(C(=O)Nc3cc(Cl)cc(NS(C)(=O)=O)c3)c2)c(F)c1 [Example 458],199
3,Cc1sc(C(=O)Nc2cc(Cl)cc(NS(C)(=O)=O)c2)cc1-c1ncc(N2CCC3(CC2)CC3)cc1F [Example 467],164
4,CCS(=O)(=O)Nc1cc(Cl)cc(NC(=O)c2cc(-c3ncc(F)cn3)n(C)c2)c1 [Example 542],307
5,CS(=O)(=O)Nc1cc(Cl)cc(NC(=O)c2cc(-c3ccc(N4CC(F)(F)C4)cn3)cs2)c1 [Example 487],654
6,COc1cnc(-c2cc(C(=O)Nc3cc(Cl)cc(NS(C)(=O)=O)c3)cn2CC(F)(F)F)nc1 [Example 563],327
7,Cc1cc(C(=O)Nc2cc(Cl)cc(NS(C)(=O)=O)c2)cn1-c1ncc(N2CC(F)(F)C2)cc1Cl [Example 406],161
8,CCc1sc(C(=O)Nc2cc(Cl)cc(NS(C)(=O)=O)c2)cc1-c1ncc(F)cc1F [Example 588],461
9,Cn1cc(C(=O)Nc2cc(Cl)cc(NS(C)(=O)=O)c2)cc1-c1ncc(N2CCC3(CC2)CC3)cc1F [Example 468],269
10,Cc1cc(N2CC(F)(F)C2)cnc1-c1cc(C(=O)Nc2cc(Cl)cc(NS(C)(=O)=O)c2)cn1C [Example 461],158
11,Cn1cc(C(=O)Nc2cc(Cl)cc(NS(C)(=O)=O)c2)cc1-c1ccc(N2CCC3(C2)CC3(F)F)cn1 (centres unmarked) [Example 495],142
12,Cc1sc(C(=O)Nc2cc(Cl)cc(NS(C)(=O)=O)c2)cc1-c1ncc(N2CCC(C(F)(F)F)CC2)cc1F [Example 481],128
13,Cn1cc(C(=O)Nc2cc(Cl)cc(NS(C)(=O)=O)c2)cc1-c1ncc(C(F)(F)F)cc1F [Example 554],238
14,Cc1sc(C(=O)Nc2cc(Cl)cc(NS(C)(=O)=O)c2)cc1-c1ncc(F)cc1N1CCC2(CC1)CC2 [Example 507],1860
15,Cn1cc(C(=O)Nc2cc(Cl)cc(NS(C)(=O)=O)c2)cc1-c1ccc(N2CCN(C(=O)C3CCC3)CC2)cn1 [Example 593],170
16,Cn1cc(C(=O)Nc2cc(Cl)cc(NS(C)(=O)=O)c2)cc1-c1ccc(N2CC3(C2)CC(F)(F)C3)cn1 [Example 498],131
17,CS(=O)(=O)Nc1cc(Cl)cc(NC(=O)c2cc(-c3ncc(F)cn3)c(Cl)s2)c1 [Example 450],266
18,CCS(=O)(=O)Nc1cc(Cl)cc(NC(=O)c2cc(C)n(-c3ncc(F)cc3F)c2)c1 [Example 445],319
19,Cc1cc(C(=O)Nc2cc(Cl)cc(NS(C)(=O)=O)c2)cn1-c1ncc(N2CCC(F)(F)C2)cn1 [Example 409],177
20,COC1CCN(c2cc(F)cnc2-c2cc(C(=O)Nc3cc(Cl)cc(NS(C)(=O)=O)c3)sc2C)C1 (centres unmarked) [Example 505],219
21,CCCS(=O)(=O)Nc1cc(Cl)cc(NC(=O)c2cc(-c3ccc(N4CC(F)(F)C4)cn3)n(C)c2)c1 [Example 531],> 10000
22,Cn1cc(C(=O)Nc2cc(Cl)cc(NS(C)(=O)=O)c2)cc1-c1cc(N2CC(F)(F)C2)ccn1 [Example 552],238
23,Cc1sc(C(=O)Nc2cc(Cl)cc(NS(=O)(=O)CCO)c2)cc1-c1ncc(OC(C)C)cn1 [Example 582],210
24,CC(C)Oc1cc(N2CC(F)(F)C2)cnc1-c1cc(C(=O)Nc2cc(Cl)cc(NS(C)(=O)=O)c2)cn1C [Example 513],133
25,Cn1cc(C(=O)Nc2cc(Cl)cc(NS(C)(=O)=O)c2)cc1-c1ncc(F)cc1Cl [Example 544],538
26,CCc1sc(C(=O)Nc2cc(Cl)cc(NS(C)(=O)=O)c2)cc1-c1ncccc1F [Example 587],128
27,CCS(=O)(=O)Nc1cc(Cl)cc(NC(=O)c2cc(C)n(-c3ncc(F)cc3Cl)c2)c1 [Example 446],966

# The remaining lines, values ahead:
row,EC50 [nM],Structure (SMILES)
1,427,Cc1sc(C(=O)Nc2cc(Cl)cc(NS(C)(=O)=O)c2)cc1-c1ncc(OC2CNC2)cc1F [Example 637]
2,13.7,Cc1sc(C(=O)Nc2cc(Cl)cc(NS(C)(=O)=O)c2)cc1-c1ncc(OC(C)CO)cn1 (centres unmarked) [Example 677]
3,3770,CS(=O)(=O)Nc1cc(Cl)cc(NC(=O)c2cc(-c3ncc(F)cn3)n(C3CNC3)c2)c1 [Example 652]
4,94.5,CN1CC[C@H](Oc2cnc(-c3cc(C(=O)Nc4cc(Cl)cc(NS(C)(=O)=O)c4)cn3CC(F)(F)F)nc2)C1 [Example 642]
5,140,Cn1cc(C(=O)Nc2cc(Cl)cc(NS(C)(=O)=O)c2)cc1-c1ccc(N2CCN(C(=O)C3CC3)CC2)cn1 [Example 594]
6,140,Cc1cc(C(=O)Nc2cc(Cl)cc(NS(C)(=O)=O)c2)cn1-c1ncc(OC(C)(C)C)cc1F [Example 662]
7,329,Cn1cc(C(=O)Nc2cc(Cl)cc(NS(C)(=O)=O)c2)cc1-c1ncc(OC2CN(C(=O)C3CC3)C2)cc1F [Example 697]
8,320,Cn1cc(C(=O)Nc2cc(Cl)cc(NS(C)(=O)=O)c2)cc1-c1ncc(F)cc1OCc1cnnn1C [Example 726]
9,535,CS(=O)(=O)Nc1cc(Cl)cc(NC(=O)c2cc(-c3ncc(OC4CN(S(C)(=O)=O)C4)cn3)n(CC(F)(F)F)c2)c1 [Example 651]
10,> 10000,Cc1sc(C(=O)Nc2cc(Cl)cc(NS(C)(=O)=O)c2)cc1-c1ncc(OC(C)C(=O)O)cn1 (centres unmarked) [Example 671]
11,> 10000,Cc1cccnc1-c1csc(C(=O)Nc2cc(Cl)cc(NS(C)(=O)=O)c2)c1C [Example 684]
12,> 10000,Cc1cc(F)cc(C#N)c1-c1cc(C(=O)Nc2cc(Cl)cc(NS(C)(=O)=O)c2)cn1C [Example 659]
13,> 10000,Cc1sc(C(=O)Nc2cc(Cl)cc(NS(C)(=O)=O)c2)nc1-c1ccc(F)cn1 [Example 716]
14,171,CCc1cncc(COc2cccnc2-c2cc(C(=O)Nc3cc(Cl)cc(NS(C)(=O)=O)c3)cn2C)c1 [Example 730]
15,62.1,CN1CC(Oc2cnc(-c3cc(C(=O)Nc4cc(Cl)cc(NS(C)(=O)=O)c4)cn3CC(F)(F)F)c(F)c2)C1 [Example 638]
16,180,Cc1cc(N2CCC(F)(F)CC2)cnc1-c1cc(C(=O)Nc2cc(Cl)cc(NS(C)(=O)=O)c2)sc1C [Example 602]
17,220,Cc1cc(C(=O)Nc2cc(Cl)cc(NS(C)(=O)=O)c2)cn1-c1ccc(OC2COC2)cn1 [Example 668]
18,871,CCS(=O)(=O)Nc1cc(Cl)cc(NC(=O)c2cc(-c3ncc(C(F)(F)F)cc3C)c(C)s2)c1 [Example 700]
19,471,Cc1sc(C(=O)Nc2cc(Cl)cc(NS(C)(=O)=O)c2)cc1-c1ncc(P(C)(C)=O)cn1 [Example 648]
20,170,Cc1sc(C(=O)Nc2cc(Cl)cc(NS(C)(=O)=O)c2)cc1-c1ncc(S(C)(=O)=O)cn1 [Example 711]
21,154,Cc1cc(C(=O)Nc2cc(Cl)cc(NS(C)(=O)=O)c2)cn1-c1ncc(N2CC(F)(F)C2)cc1OC(C)C [Example 672]
22,> 10000,Cc1sc(C(=O)Nc2cc(Cl)cc(NS(C)(=O)=O)c2)c(F)c1-c1ncc(OC(C)C)cn1 [Example 683]
23,55.2,CN1CC[C@@H](Oc2cnc(-c3cc(C(=O)Nc4cc(Cl)cc(NS(C)(=O)=O)c4)cn3CC(F)(F)F)nc2)C1 [Example 641]
24,16.2,CN1CC[C@@H](Oc2cnc(-c3cc(C(=O)Nc4cc(Cl)cc(NS(C)(=O)=O)c4)cn3C)c(F)c2)C1 [Example 640]
25,625,Cc1noc(C)c1COc1cc(F)cnc1-c1cc(C(=O)Nc2cc(Cl)cc(NS(C)(=O)=O)c2)cn1C [Example 725]
26,124,Cc1cc(C(=O)Nc2cc(Cl)cc(NS(C)(=O)=O)c2)cn1-c1ccc(OC(C)(C)C)cn1 [Example 663]
27,130,Cc1cc(C(=O)Nc2cc(Cl)cc(NS(C)(=O)=O)c2)cn1-c1ncc(N2CC(F)(F)C2)cc1OC1CCC1 [Example 673]
28,442,Cc1ccnc(OCc2cncc(F)c2)c1-c1cc(C(=O)Nc2cc(Cl)cc(NS(C)(=O)=O)c2)cn1C [Example 624]
29,133,Cc1sc(C(=O)Nc2cc(Cl)cc(NS(C)(=O)=O)c2)cc1-c1ncc(C2(O)CN(C)C2)cc1F [Example 681]
30,427,Cc1cc(C(=O)Nc2cc(Cl)cc(NS(C)(=O)=O)c2)cn1-c1ncc(F)cc1-c1cncc(F)c1 [Example 666]

# Same assay, conditions: Homo sapiens, HCT-116, circBRIP1, HCT116 cells; cell carries no mark, SyBr or Taqman not indicated; read-out: DHX9 Cellular Target Engagement EC50
row,EC50 [nM],Structure (SMILES)
1,372,Cc1sc(C(=O)Nc2cc(Cl)cc(NS(C)(=O)=O)c2)cc1-c1c(F)cc(F)c[n+]1[O-] [Example 736]
